Assay [1] relates to chronic immobilization stress C57BL/6 mice. The following applies: stress group, peptide diet vs normal diet. The procedure: A total of 28 male C57BL/6 mice at 7 weeks of age were divided into two groups: a control group (CTL) and a stress group (STR). The stress group was subjected to chronic immobilization stress for 15 days. Specifically, each mouse in the stress group was individually placed in a restrainer for 2 hours daily from […] to induce chronic immobilization stress. The control group (CTL) and stress group (STR) were further classified based on their diets. […] After the completion of the 15-day chronic immobilization stress, the mice were subjected to a sucrose preference test (SPT). Blood samples and prefrontal cortex (PFC) tissues were collected from the mice for subsequent test.
For the analysis of anti-depressive effect, blood and PFC tissues were collected from mice that underwent chronic immobilization stress. The blood collected from mice was centrifuged at 1,000×g for 10 minutes at 4° C. to separate the plasma, and the supernatant was collected and diluted 1/20 with PBS to prepare a sample. The corticosterone concentration in the plasma was then measured using the Corticosterone EIA kit (Cayman) by following the manufacturer's instructions.
In addition, the plasma diluted with PBS at a ⅓ ratio and the PFC tissue lysate (50 μg) were prepared. The ROS/RNS (reactive oxygen species/reactive nitrogen species) level in the plasma and PFC tissues was measured using the ROS/RNS assay kit (Cell Biolabs) according to the manufacturer's instructions.
In addition, the depression was evaluated by measuring the sucrose preference of mice that had undergone 15 days of chronic immobilization stress. The sucrose preference test was conducted over a total of 4 days. Equal amounts of 0.1 M sucrose solution and water were provided in identical bottles of the same size and shape. On the first day, mice were given access to 0.1 M sucrose solution and water for 24 hours. On the second day, the positions of the sucrose solution and water bottles were switched, and mice were given access for 24 hours. On the third day, no sucrose solution or water was provided. On the fourth day, mice were again given access to equal amounts of 0.1 M sucrose solution and water for 3 hours, the positions were then switched, and access was provided for another 3 hours. The amount of sucrose solution and water consumed during the 6-hour period on the fourth day was measured, and the sucrose preference (%) was calculated according to the following formula.
Sucrose preference (%)=Sucrose intake amount/(Water intake amount+Sucrose intake amount)×100

For assay [2], the system named is ischemic stroke Mongolian gerbils. The experiment in a line: Neuronal cell death in ischemic stroke model (cell count, immunohistochemical staining). The format is in vivo. The procedure: (§1) Three-month-old male Mongolian gerbils were induced with general anesthesia using 3% isoflurane and the anesthesia was maintained with 2.5% isoflurane gas. After sterilizing the neck area, a midline incision was made to expose both common carotid arteries, and microvessel clip was used to block the blood flow for 5 minutes, inducing cerebral ischemia to simulate a stroke. During the application of the microvessel clip, the body temperature was maintained at 37.0±0.5° C., and animals undergoing sham operation were used as the control group.
After inducing ischemia, the animal was, under reperfusion, intraperitoneally administered with YQ peptide at a dose of 200 mg/kg, three times every 24 hours. On the fourth day, the animal was sacrificed, and brain tissues were collected to measure the number of dead neuronal cell.
Immunohistochemical staining was carried out to examine changes in neuronal cells and microglial cells and also a change in related factors in the hippocampus of an ischemic brain injury animal model. Specifically, after inducing ischemia, YQ peptide was administered intraperitoneally three times every 24 hours at a dose of 200 mg/kg under reperfusion. A control group was administered with a vehicle (i.e., 0.9% saline) instead of the peptide. On the 4th day, the animal was sacrificed, and brain tissue was collected and fixed with 4% paraformaldehyde at 4° C. Subsequently, the tissue was added to sucrose solutions of increasing concentrations (i.e., 10%, 20%, and 30%), frozen using liquid nitrogen, and sectioned into continuous slice specimens with a thickness of 30 μm. The specimens were stored in a cryoprotective solution at −20° C. The brain tissue specimen was rinsed three times for 10 minutes each with 0.01 M PBS and treated with 0.3% H2O2 for 30 minutes to eliminate endogenous peroxidase present in the tissue. To prevent any nonspecific immune reaction, the specimen was incubated for 30 minutes with 5% normal serum corresponding to each antibody. […]

Assay [3] has as its system renal ischemia-reperfusion C57BL/6 mice. As to conditions: 100 mg/kg oral, 24 hours of reperfusion. The procedure: Male C57BL/6 mice weighing 23 to 25 g were housed in a germ-free facility with controlled temperature and humidity. They were allowed free access to water and food. […] Renal ischemia was induced by midline laparotomy and occlusion of both renal pedicles using a Müller atraumatic vascular clamp for 25 minutes, followed by removal of the clamp for reperfusion. Control group (sham) underwent the same surgical procedures except the induction of ischemia using clamp. After 24 hours of reperfusion, the mice were sacrificed, and blood was collected from the heart, and the kidney tissue was harvested.
The collected blood was centrifuged at 3,000 rpm for 15 minutes to separate the serum, and the serum creatinine level, an indicator for evaluating kidney damage, was measured using the Jaffe method. The Jaffe method involves measuring the absorbance of the serum sample at 510 nm wavelength after reacting it with picric acid and then terminating the reaction with 60% acetic acid followed by measurement of absorbance, and calculating the concentration of creatinine in mg/mL units based on the difference in absorbance.
The total RNA was extracted from the kidney tissues using the Trizol method, and cDNA was synthesized using the RevertAid Reverse Transcription System (ThermoFisher). Quantitative PCR (qPCR) for inflammatory cytokines (IL-1β, IL-6, and MCP-1) was performed using the iQ SYBR Green Supermix (Bio-Rad) on the CFX Connect Real-Time PCR system (Bio-Rad). The relative amount of the target mRNA, normalized to GAPDH, was analyzed using the […].
The kidney tissue was homogenized in RIPA buffer, and protein quantification was performed using the BCA method. Western blot was then carried out using antibodies against nitrotyrosine and 4-hydroxynonenal (4-HNE), i.e., a product of lipid peroxidation.

The test system of assay [4] is superoxide dismutase (SOD). The experiment in a line: Hippocampal SOD activity in ischemic stroke model. The format is in vivo, Mongolian gerbils. The following applies: hippocampus, 200 mg/kg i.p. once, twenty-four hours after reperfusion. The procedure: as §1
After inducing ischemia, the animal was, under reperfusion, intraperitoneally administered once with YQ peptide at a dose of 200 mg/kg. Two hours or twenty-four hours after the reperfusion, the animal was anesthetized with avertin. Then, the skull was quickly opened, and the brain was rapidly removed. The hippocampal tissue was collected and rapidly frozen in liquid nitrogen, then stored in a deep freezer. Subsequently, the activities of superoxide dismutase (SOD) and catalase (CAT) were measured by using SOD colorimetric activity kit and CAT colorimetric activity kit, respectively.

Consider tyrosine-glutamine [YQ], for which, in assay [1], the “ROS/RNS level in PFC tissue” value is given as “decreased” and the sucrose preference entry is “increased”. For the same substance, in assay [2] (200 mg/kg i.p. three times every 24 hours, fourth day), the “number of neuronal cells” value is given as “increase”. Further, the “cells found to survive compared to the sham operation group” value in assay [2] (hippocampal CA1 region, 200 mg/kg i.p. three times every 24 hours, 4th day) is “approximately 60.7%”. The “morphological changes in glial cells” value in assay [2] (immunohistochemical staining, 200 mg/kg i.p. three times) is given as “minimal morphological changes”. Moreover, in assay [3] (Western blot), the “lipid peroxidation (4-HNE) in the kidney tissue” value was “significantly reduced” and the “proteins with nitrated tyrosine in the kidney tissue” value was “significantly reduced”. Besides, in assay [3] (qPCR), the “increase in expression level of IL-1β in kidney tissue” value is “statistically significantly inhibited”, the “increase in expression level of IL-6 in kidney tissue” value is on record as “statistically significantly inhibited” and the “increase in expression level of MCP-1 in kidney tissue” value is given as “statistically significantly inhibited”. Also, the SOD activity result in assay [4] was “activity increases”.
